Reference: paper PMC12764842 (Acta Pharmacologica Sinica, 2025)

Test system: LCMV
Design: species or system BALB/c mice
Details: mouse, in vivo

SMILES | Viral copies in the liver | Body weight decrease of LCMV-challenged mice
O=C1O[C@H]2[C@@H]3OC(=O)c4cc(O)c(O)c(O)c4-c4c(O)c(O)c5oc(=O)c6c(c(O)c(O)c7oc(=O)c4c5c76)-c4c(cc(O)c(O)c4O)C(=O)OC[C@H]3OC(O)[C@@H]2OC(=O)c2cc(O)c(O)c(O)c2-c2c1cc(O)c(O)c2O (mixture of isomers) [Punicalagin] | no effect | –
O=C(O)C[C@@H]1C(=O)O[C@H]2[C@H](OC(=O)c3cc(O)c(O)c(O)c3)[C@@H](OC(=O)c3cc(O)c(O)c4c3[C@H]1[C@H](O)C(=O)O4)[C@H](OC(=O)c1cc(O)c(O)c(O)c1)O[C@@H]2COC(=O)c1cc(O)c(O)c(O)c1 [Chebullinic acid, chebulinic acid] | no effect | –
O=C(/C=C/c1ccc(O)c(O)c1/C=C/c1ccc(O)c(O)c1)O[C@H](Cc1ccc(O)c(O)c1)C(=O)O [Salvianolic acid A, salvianolic acid A] | significantly reduced | –
NC(=O)c1nc(F)c[nH]c1=O [T-705, favipiravir, reference compound] | significantly reduced | decrease was halted
